In PMC11487561 (ACS Chemical Neuroscience, 2024):
Read-outs that look alike come from different tables or passages of the source.

Key:
human M4 (hM4) = target: T1, human M4 (hM4) (Homo sapiens, UniProt P08173); assay: Calcium mobilization assay, hM4/Gqi5-CHO cells, EC20 acetylcholine (PAM); assay type: cell-based; details: for fold increase in hM4 potency (EC50) vs comparator analogue: 14h vs 14c, 22g vs 14j, 22j vs 14k, 22k vs 14g, 22f vs 14e; for Emax: read-out: hM4 %ACh Max
T1 construct: expressed in transfected cells
T1 sequence (P08173 1-479): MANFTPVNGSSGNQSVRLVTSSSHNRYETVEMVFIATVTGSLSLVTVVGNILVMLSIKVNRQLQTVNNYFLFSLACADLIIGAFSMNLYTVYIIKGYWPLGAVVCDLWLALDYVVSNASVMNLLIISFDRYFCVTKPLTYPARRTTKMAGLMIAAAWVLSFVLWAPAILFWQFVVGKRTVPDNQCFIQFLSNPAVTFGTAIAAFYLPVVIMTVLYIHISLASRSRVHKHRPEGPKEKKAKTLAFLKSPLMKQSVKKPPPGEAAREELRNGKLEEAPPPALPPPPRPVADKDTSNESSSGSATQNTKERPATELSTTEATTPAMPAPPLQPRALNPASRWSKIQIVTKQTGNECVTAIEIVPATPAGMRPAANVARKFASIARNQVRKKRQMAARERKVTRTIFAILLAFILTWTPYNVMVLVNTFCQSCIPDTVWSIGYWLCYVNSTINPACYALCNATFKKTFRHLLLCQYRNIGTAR

[1] = Binding in brain homogenate from rat (equilibrium dialysis); assay type: in vitro ADME; details: for rat fbrain: fraction unbound, equilibrium dialysis, rat brain homogenates; for fraction unbound at 6 h, 1 µM: rat, brain homogenate, in %, read-out: fu,brain (rat brain homogenate)
Method: Binding in brain homogenate from rat.
Determination of fraction unbound (f u) in brain homogenate from rat was conducted using the same methodology and procedure than described for plasma protein binding assay with the following modifications: 1) a final compound concentration of 1 μM was used, 2) naïve rat brains were homogenized in DPBS (1:3 composition of brain: DPBS, w/w) using a Mini-Bead Beater™ machine in order to obtain […]
The diluted fraction unbound (f u2) in brain was calculated as (analyte to IS MS peak area ratio from Trans-buffer side) / (analyte to IS MS peak area ratio from Cis-brain homogenate side). Undiluted fraction unbound for the brain was calculated using the following equation: […]
Mean values for each species were calculated from 3 replicates. […]

[2] = Rat plasma-to-brain level (PBL) cassette, brain distribution; assay type: in vivo; details: SD rat, 0.2 mg/kg IV; for Kp,uu, brain:plasma / Kp uu at 0.25 h: unbound brain to unbound plasma ratio; for Kp at 0.25 h / Kp uu at 0.25 h: male, Sprague-Dawley, rat, brain / plasma, iv
rat M4 (rM4) = rat M4 (rM4) (Rattus norvegicus, UniProt P08485); assay: Calcium mobilization assay, rat M4; assay type: cell-based
[3] = Binding in plasma from human (equilibrium dialysis); assay type: in vitro ADME; details: human, plasma, read-out: human fu,plasma
Method: (§1) Binding in plasma from rat and human.
(§2) Determination of compounds’ fraction unbound (f u) in plasma from rat and human was conducted in vitro via equilibrium dialysis using HTDialysis membrane plates. Dialysis membranes (four paired strips per HTD assay) were hydrated as described by the manufacturer and inserted into the HTD plate, which was assembled and prepared for sample addition by the dispensing of blank buffer (DPBS, 100 µL/well) into the ‘top half’ of each membrane-split well. Each compound was diluted into plasma from each species (5 µM final concentration), which was aliquoted in triplicate to the ‘bottom half’ of the prepared HTD plate wells. The HTD plate was sealed and incubated for 6 hours at 37 °C. Following incubation, each well (both top and bottom halves) were transferred (20 µL) to the corresponding wells of a 96-shallow-well (V-bottom) plate. The daughter plates were then matrix-matched (buffer side wells received equal volume of plasma, and plasma side wells received equal volume of buffer), and extraction solution (120 µL; acetonitrile containing 50 nM carbamazepine as IS) was added to all wells of both daughter plates to precipitate protein and extract test article. The plates were then sealed and centrifuged (3500 rcf) for 10 minutes at ambient temperature. Supernatant (60 µL) from each well of the daughter plates was then transferred to the corresponding wells of new daughter plates (96-shallow-well, V bottom) containing water (Milli-Q, 60 µL/well), and the plates were sealed in preparation for LC-MS/MS analysis (see below). fu was calculated as (analyte to IS MS peak area ratio from Trans-buffer side) / (analyte to IS MS peak area ratio from Cis-plasma side). Mean values for each species were calculated from 3 replicates.

[4] = Intrinsic clearance in rat liver microsomes; assay type: in vitro ADME; details: for CLint scaled at 1 µM: pH 7.4, rat liver microsomes
Method: (§3) Intrinsic Clearance in Rat and Human Liver Microsomes
(§4) The in vitro intrinsic clearance (CL int) was investigated in commercially obtained hepatic microsomes from rat and human donors using the substrate depletion (i.e., loss-of-parent vs. time, or t 1/2 method) approach with analyte detection via liquid chromatography-tandem mass spectrometry (LC-MS/MS). For each species, mean %parent remaining values at each time point were calculated from replicates raw data (analyte:IS peak area ratios) and used to determine in vitro t 1/2 and CLint.
(§5) Experiments were carried out using a robot-assisted (TECAN model Evo 200). Compound was incubated (1 µM final concentration) in buffer (100 mM potassium phosphate pH 7.4 with 3 mM MgCl2) containing hepatic microsomes (0.5 mg/mL final concentration) from multiple species, discretely, at 37 °C under constant orbital shaking. After 5 minutes (pre-incubation), reactions were initiated by addition of nicotinamide adenine dinucleotide phosphate (NADPH, 1 mM final concentration). At selected time intervals (0, 3, 7, 15, 25, and 45 minutes) post-addition of NADPH, aliquots (50 µL) were taken and placed into a 96-shallow-well plate containing ice cold acetonitrile (150 µL) with carbamazepine (IS, 50 nM). The plates were then centrifuged (3000 rcf at 4 °C) for 10 minutes. The supernatants were transferred to a new 96-shallow-well daughter plate and diluted (1:1 v/v) with water (Milli-Q filtered). The plates were then sealed in preparation for LC-MS/MS analysis (see below).
(§6) Raw LC-MS/MS peak area data generated from the assay samples were used to construct natural log-transformed %parent remaining vs. time plots (using t = 0 minute post-NADPH addition sample data as starting point set to 100%). In vitro compound half-life (t 1/2) values were obtained using the following […]
(§7) k is the slope from linear regression analysis of the natural log-transformed data (using means from Where all replicates at each time point). Resulting t 1/2 values were then used to calculate hepatic CLint values according to the following equation and with the use of species-specific scale-up factors for liver weight (grams) per total body weight (kg): […]
(§8) CLint = in vitro t1/2 x 0.5 mg microsomes x 1 gram liver x kg body wt aScale-up factors used are 45 (rat) and 20 (human).2
(§9) Predicted hepatic clearance (CLhep) was calculated using the following equation: […]
(§10) Qh represents hepatic blood flow (mL/min/kg): 21 for human, 70 for rat, and 90 for mouse.
(§11) Prepared samples were injected (10 µL each) onto an AB Sciex Triple Quad 4500 mass spectrometer system with an Agilent 1260 Infinity II pump and autosampler. Mass spectrometer conditions are described in Table S1. Quantitation of compounds was performed via AB Sciex Multiquant software using the raw analyte:IS peak area ratios. The typical detection range was 0.5 ng/mL to ≥ 5,000 ng/mL utilizing a quadratic equation regression with 1/x2 weighting. […]
(§12) Table S1. LC-MS/MS Conditions*
(§13) Mobile phase A 0.5% Formic Acid in Water
(§14) Mobile phase B 0.5% Formic Acid in Acetonitrile
(§15) Gradient Time % Mobile Phase B

[5] = Binding in plasma from rat (equilibrium dialysis); assay type: in vitro ADME; details: read-out: rat fu,plasma
Method: as §1, §2

[6] = Intrinsic clearance in human liver microsomes; assay type: in vitro ADME; details: for CLint scaled at 1 µM: pH 7.4, human liver microsomes
Method: as §3, §4, §5, §6, §7, §8, §9, §10, §11, §12, §13, §14, §15

[7] = tested on: amphetamine-induced hyperlocomotion in rats; assay: Rat amphetamine-induced hyperlocomotion (AHL); assay type: in vivo; details: 10 mg/kg p.o. + amphetamine 0.75 mg/kg s.c.
Method: Rat Amphetamine-Induced Hyperlocomotion (AHL) Protocol
Male Harlan Sprague Dawley rats with a mean body weight of 240 g (range 221-264 g) were tested in SmartFrame Open Field locomotor activity test chambers to automatically record locomotor activity. All rats were habituated in locomotor activity enclosures for 30 min, followed by pretreatment by oral gavage for an additional 30 min with either vehicle or a dose of VU6016235 or the comparator M 4 PAM VU0467154. Next, rats were injected subcutaneously with vehicle or a dose of 0.75 mg/kg amphetamine and then monitored for an additional 60 min. Changes in locomotor activity were recorded for a total of 120 min. Locomotor data were expressed as the number of photobeam breaks/5 min intervals across the 120-min test session or as the total ambulation, calculated as sum of photobeam beam breaks from the time of amphetamine administration (60 min) until the end of the study (120 min). Time course data were analyzed by two-way ANOVA with main effects of treatment and time; changes in total ambulation were analyzed by one-way ANOVA followed by Dunnett’s post hoc test (GraphPad Prism 7 [GraphPad Software, San Diego, CA]). For all tests, α ≤ 0.05 was considered to represent statistical significance.
Finally, percent reversal data were calculated in Microsoft Excel using the following formula: Percent Reversal = 100 - {[(total ambulation in individual animal from t = 60 to t = 120) / (mean total ambulation […]
from t=60 to t=120 in the VAMP group)] * 100}. Mean percent reversal ± S.E.M. was calculated for each dose group using GraphPad Prism 7.
At the end of this behavioral study, each rat was euthanized, then decapitated, and the plasma and brain tissues were collected for the evaluation of exposure levels of VU6016235-05 or VU0467154-9A by pharmacokinetic analysis. […]

[8] = design: method as in PMID 31787491, PMID 34710625; details: previously reported tricycles, Figure 2; cited from earlier work
[9] = design: method as in PMID 31787491, PMID 34710625; details: previously reported tricycles, Figure 2; cited from earlier work; remark: listed apart in the source
[10] = calcium mobilization, hM4/Gqi5-CHO cells, EC20 acetylcholine
[11] = calcium mobilization, hM4/Gqi5-CHO cells, EC20 acetylcholine, read-out: hM4 EC50
[12] = calcium mobilization, hM4/Gqi5-CHO cells, EC20 acetylcholine, read-out: hM4 pEC50 (converted)
[13] = 0.2 mg/kg, total brain to total plasma ratio
[14] = fraction unbound, equilibrium dialysis
[15] = predicted hepatic clearance from microsomal CLint

Chain of rat M4 (rM4) (P08485 whole entry): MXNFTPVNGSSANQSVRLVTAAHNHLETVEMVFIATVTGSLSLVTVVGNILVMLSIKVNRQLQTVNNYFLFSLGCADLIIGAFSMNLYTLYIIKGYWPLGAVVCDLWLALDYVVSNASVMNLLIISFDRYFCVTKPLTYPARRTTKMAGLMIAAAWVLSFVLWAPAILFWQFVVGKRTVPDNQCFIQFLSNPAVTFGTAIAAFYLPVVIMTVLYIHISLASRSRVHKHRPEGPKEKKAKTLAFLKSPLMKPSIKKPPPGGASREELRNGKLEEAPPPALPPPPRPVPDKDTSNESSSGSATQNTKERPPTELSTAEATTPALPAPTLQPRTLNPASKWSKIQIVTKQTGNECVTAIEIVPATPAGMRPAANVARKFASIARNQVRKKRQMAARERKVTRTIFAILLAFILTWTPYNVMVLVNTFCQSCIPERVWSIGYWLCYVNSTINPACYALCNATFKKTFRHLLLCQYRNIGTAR

Row | fold increase in hM4 potency (EC50) vs comparator analogue (human M4 (hM4)) [fold] | Emax (human M4 (hM4); [10]) [%] | EC50 (human M4 (hM4); [11]) [nM] | EC50 (human M4 (hM4); [12]) [nM] | rat fbrain [1] | fraction unbound at 6 h, 1 µM [1] | Kp at 0.25 h [2, 13] | Kp uu at 0.25 h ([2]; 0.2 mg/kg) | fraction unbound at 6 h, 5 µM [3, 14] | CLint scaled at 1 µM [4] [mL/min/kg] | fraction unbound at 6 h, 5 µM [5, 14] | CLint scaled at 1 µM [6] [mL/min/kg] | Compound | also measured
1 | 16 | 50 | 100 | 102 | 0.033 | 0.012 to 0.033 | > 5 | > 1 | 0.035 | 121 | 0.132 | 45 | Cc1nc(C)c2c(n1)sc1c(N3CC4(C3)CC(F)(F)C4)ncnc12 [14h] | Kp, brain:plasma ([2]; 0.25 h, total brain to total plasma ratio, 0.2 mg/kg): 5.07; Kp,uu, brain:plasma ([2]; 0.25 h, 0.2 mg/kg): 1.27; Kp,uu, brain:plasma ([2]; 0.25 h, listed as VU6015976, 0.2 mg/kg): 0.76; EC50 (rat M4 (rM4)): 380 nM; fraction unbound at 6 h, 5 µM ([3]; in %): 0.01 to 0.05; CLhep, rat [4, 15]: 44 mL/min/kg; fraction unbound at 6 h, 5 µM ([5]; in %): > 0.05; CLhep, human [6, 15]: 14 mL/min/kg
2 | 19 | 97 | < 190 | 33.1 | 0.015 | 0.012 to 0.033 | 8.33 | 2.91 | 0.01 | 1520 | 0.043 | 148 | Cc1nc(C)c2c(n1)sc1c(N3CCC(F)(F)C3)nccc12 [22f] | 
3 | 7 | 94 | 170 | 166 | 0.009 | < 0.01 | 1.69 | 1.01 | 0.009 | 386 | 0.014 | 50 | COc1ccc(CNc2nccc3c2sc2nc(C)nc(C)c23)cc1F [22j] | 
4 | 4 | 77 | < 190 |  | 0.007 | < 0.01 | 18.6 | 3.43 | 0.023 | 3060 | 0.038 | 124 | Cc1nc(C)c2c(n1)sc1c(N3CCCC3)nccc12 [22k] | hM4 pEC50 (human M4 (hM4); [10]): 7.14
5 |  |  |  |  |  |  |  |  |  |  |  |  | Cc1nnc2sc(C(=O)NCc3ccc(S(=O)(=O)C(F)(F)F)cc3)c(N)c2c1C [VU0467154, reference compound] | mean reversal of AHL [7]: 35.4 ± 4.2%
6 |  |  |  |  |  |  |  |  |  |  |  |  | Cc1cc(C)c2c(n1)sc1c(N3CC4(COC4)C3)ncnc12 [VU6007215] | rat CLhep [8]: 63 mL/min/kg; Kp [9]: 4.47; Kp,uu [9]: 0.40
7 |  |  |  |  |  |  |  |  |  |  |  |  | COc1cc(N2CC(Nc3ncnc4c3ccc3nn(C)c(C)c34)C2)c(Cl)cn1 [VU6017649] | rat CLhep [8]: 44 mL/min/kg; Kp [9]: 1.55; Kp,uu [9]: 3.88
